Measured values published in PubChem BioAssay AID449762 (Southern Research Specialized Biocontainment Screening …, 2010).
Records with an inconclusive call do not appear.

System: M. tuberculosis H37Rv growth inhibition, 7H9 media
Assay: M. tuberculosis growth inhibition, HTS (AID 449762);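 further: bacterial growth assessed after seven days of incubation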
Conditions: for IC90: measured here: IC90 growth inhibition

SMILES	IC90 [µM]	IC50 [µM]
Cc1[nH]n(-c2ccccc2)c(=S)c1C=NCCCN=Cc1c(C)[nH]n(-c2ccccc2)c1=S	> 100	–
COc1ccccc1N1CCN(/N=C/C(Cl)=C/c2ccccc2)CC1	> 100	52.7
CCCCC(=O)OCC(=O)N1N=C(c2c[nH]c3ccccc23)C(O)C1c1ccc(OC)cc1 (stereo not drawn)	15.9	10.6
Cc1ccc(C)c(N2CCN(C(=S)Nc3ccc4nc(N5CCN(C)CC5)cc(C)c4c3)CC2)c1	50.9	38.7
CCc1nnc(NC(=O)CN2CCN(c3nc(-c4ccccc4)cs3)CC2)s1	52.4	45.8
COC(=O)c1ccc(NC(=O)CSc2nc3ccc(N4C(=O)C5C6C=CC(C6)C5C4=O)cc3s2)cc1 (stereo not drawn)	5.73	3.89
CC1(C)c2cc(Cl)ccc2-n2c1cc(O)c(-c1ccccc1)c2=O	10.8	4.43
COC(=O)CCc1sc(Nc2ccc(Br)cc2)nc1-c1ccc(OC)cc1	44.1	26
CCCCn1c(O)c(/C=C2/C=CC=N2)c(=O)[nH]c1=O	17.1	6.55
Cc1ccc(C)c(N2CCN(C(=O)c3ccc4nc(N5CCOCC5)sc4c3)CC2)c1	47.4	37.6
CSc1nc2nc3c(c(=O)n2[nH]1)CCCC3	> 100	20.5
Brc1ccc2c(c1)C(OC1CN3CCC1CC3)c1ccccc1CS2 (stereo not drawn)	28.4	25.2
CCOC(=O)N1CCc2c(sc(NC(=O)c3ccc(Cl)s3)c2C(N)=O)C1	20.5	6.17
Cc1cccc(OCC(=O)NNC(=O)c2cc3ccccc3oc2=O)c1	> 100	25.4
C/C=C(\C)C(=O)Nc1cccc(C2=NOC3(C2)C[C@H](C(N)=O)N(C(=O)c2cc([N+](=O)[O-])cc([N+](=O)[O-])c2)C3)c1 (stereo partly drawn)	3.37	1.34
CC(C)(C)c1ccc(C(=O)N2CCN(CCNC(=O)C(=O)NCc3ccc(Cl)cc3)CC2)cc1	28.3	22.7
CCCCCn1c(=O)c2ccccc2n2c(CCl)nnc12	2.21	0.48
Cn1cc(/C=C2\C(=O)NC(=O)N(c3ccccc3)C2=O)c2ccccc21	24.2	10.7
Cc1ccc(NC(=O)CNCc2cccs2)cc1Br	> 100	99.6
Nc1ccc(N=Nc2ccccc2)c(N)n1	> 100	–
C(=C\c1nccc2c1[nH]c1ccccc12)/c1ccccc1	48.2	28.5

SMILES	IC90 [µM]	IC50 [µM]
Cc1nn(-c2ccccc2)c(Cl)c1C(=O)Nc1nnc(C2CCCCC2)s1	> 50	17.3
COc1ccccc1C1CC(c2c(-c3ccccc3)c3cc(Cl)ccc3[nH]c2=O)=NN1S(C)(=O)=O (stereo not drawn)	> 100	93.7
C[C@]12C=CC(=O)C=C1CC[C@@H]1C2=CC[C@]2(C)[C@@H](C(=O)CN3CCN(c4cc(N5CCCC5)nc(N5CCCC5)n4)CC3)CC[C@@H]12	30.4	22.5
CC1CCCCC1NC(=O)c1ccc2c(c1)[nH]c(=O)n2C1CCCC1 (stereo not drawn)	8.42	5.15
O=C(CCN1C(=O)/C(=C/c2ccccc2Cl)SC1=S)N1CCCC1	> 25	9.76
Cc1ccccc1N/N=C/c1c(C)nc2ccccn12	53.7	47.1
COc1ccc(COc2cc(-c3cccc(OC)c3)nc3ccc(NC(=O)c4ccc(OC)cc4)cc23)cc1	> 100	5.42
CCN(CC)CCCNc1nc2cc(OC)c(OC)cc2c2nc(-c3ccccc3)nn12	6	4.71
Cc1ccc(C(=O)N/N=C(/CC(=O)c2cccs2)C(F)(F)F)cc1	3.28	2.97
Nc1nc(Cl)cc(N2CCC(c3cc(-c4ccc(Cl)cc4Cl)n[nH]3)CC2)n1	25.9	22.9
Cc1ccc2nc(/N=C(\N)NC(=O)NC3CCCCC3)nc(C)c2c1	8.85	2.22
C=C(C)C(=O)OCC(O)COc1ccc(C(C)(C)c2ccc(OCC(O)COC(=O)C(=C)C)cc2)cc1 (stereo not drawn)	48.5	37.8
O=C1NCC(O)=C1C=Nc1ccccc1O	6.49	5.93
Oc1[nH]c2ccccc2c1N=NC(=S)N1CCOCC1	13.9	12.3
COc1cccc(NC(=S)/C(=C(\[O-])c2cc(C)n(-c3ccccc3F)c2C)[n+]2ccc(N(C)C)cc2)c1	70.9	55.9
Cn1ccc(=Nc2ccc(NC(=O)c3ccc(N=c4ccn(C)c5ccc([N+](=O)[O-])cc45)cc3)cc2)cc1	< 0.2	< 0.2
C#CCn1c(=NC(=O)c2cc(Cl)sc2Cl)sc2cc(S(N)(=O)=O)ccc21	> 100	3.37
C[Se]C[C@@H](N)C(=O)O	69.6	51
CCOc1cccc2cc(C(=O)Nc3nccs3)c(=O)oc12	29.6	0.34
COC(=O)c1ccc(Cn2cc(C(F)(F)F)cc([N+](=O)[O-])c2=O)cc1	23.7	< 0.2
C=CCNC(=S)N/N=C(\C)c1ccccn1	17.7	7.07

SMILES	IC90 [µM]	IC50 [µM]
CCOc1ccc(C(=O)CCN2CCCCCC2)cc1	17.4	11.9
COc1ccc(-c2nc(CN3CCN(c4cc(C)nc(C)c4)CC3)c(C)o2)c2ccccc12	25.2	19.6
O=C(/C=C/c1c(F)cccc1Cl)c1ccc(F)cc1	34.4	23.8
CCc1c(C)sc2nc3c(C(=O)N4CCOCC4)cc(C(=O)c4cc(F)ccc4O)cn3c(=O)c12	> 100	47.3
Cc1ccc(-c2csc3ncnc(Nc4ccc(N5CCOCC5)cc4)c23)cc1	50.1	18.4
CCCCOc1ccc(C(=O)N/N=C/c2ccc(OCCN3CCCCC3)c(OC)c2)cc1	44.6	28.8
S=c1nc2ccccc2c2nc(-c3ccccc3)[nH]n12	14.6	10.4
Cc1nc2sccn2c(=O)c1CCN1CCC(=C(c2ccccc2)c2ccc(F)cc2)CC1	49.9	44.7
CCCOC(=O)/C(=C\c1ccc([N+](=O)[O-])o1)NC(=O)c1ccccc1	16.2	11
CCOC(=O)N1CCN=C1SCc1ccc(C(F)(F)F)cc1	> 100	–
CC(C)(C)c1ccc(C(O)CCCN2CCC(C(O)(c3ccccc3)c3ccccc3)CC2)cc1 (stereo not drawn)	17.4	12.2
CCCCNC(=S)N(C)/N=C/c1ccc2c(c1)OCO2	20.4	12.2
Cc1ccn2nc(S(=O)(=O)Nc3c(F)cccc3F)nc2n1	9.3	6.95
C=C1CCC[C@]2(C)C[C@H]3OC(=O)C(CNC(C)CCCC(C)C)[C@H]3CC12 (stereo partly drawn)	24.2	22.4
O=C(Nc1ccc(Oc2cccc(C(F)(F)F)c2)nc1)c1cccs1	> 100	39.6
COc1cc(N=Nc2ccc3ccccc3c2)ccc1O	63.1	37.8
O=C(NN=C1c2ccccc2-c2ccccc21)c1cccc(Br)c1	> 100	0.28
C/C(=N\Nc1nc2c(s1)CCCC2)c1ccccc1	34.4	18.6
O=C1CN(CC(=O)N2CCCCC2)c2ccccc2O1	27.4	23.6
O=C(CSc1nnnn1-c1ccc2c(c1)OCCO2)OC1CCCCC1	21.7	11.9
CC(NC(=O)c1ccccc1Br)C1CC2CCC1C2 (stereo not drawn)	> 100	21
